Patent US20240208904A1, “CRYSTALLINE POTASSIUM SALT OF 1-ETHYL- N -((1,2,3,5,6,7-HEXAHYDRO- S -INDACEN-4-YL)CARBAMOYL)PIPERIDINE-4 -SULFONAMIDE” (Hoffmann-La Roche Inc., priority 2021, published 2024)
Entries after “also recorded” stand apart in the source; their conditions may differ.

How the values were obtained:
[1] = for Limit solubilities after 48 h at 20° C.; measured by Q 1H NMR: 4-aminoindacene (level of hydrolytic precursor measured in solution): 50 mg/ml
Description: (§1) Crystalline 1-ethyl-N-((1,2,3,5,6,7-hexahydro-s-indacen-4-yl)carbamoyl)piperidine-4-sulfonamide salts (50 mg, 1 wt.) or crystalline 1-ethyl-N-((1,2,3,5,6,7-hexahydro-s-indacen-4-yl)carbamoyl)piperidine-4-sulfonamide free acid (as a control) (50 mg, 1 wt.) were stirred in purified water (1000 μl, 20 vol.) at 20° C. Limit solubilities (mg/ml) were determined after 48 hours at 20° C. measured by Q ^1H NMR (measured against an internal standard, 2,3,5,6-tetrachloronitrobenzene).

[2] = Solubility determinations: limit solubility in purified water by Q 1H NMR
Description: as §1

[3] = Competitive suspension equilibration of Form A and Form D in anhydrous acetonitrile; type: physicochemical; conditions: versus Form D, 20° C. or 40° C., 96 hours
Description: Form A (50 mg, 1 wt.) and Form D (amounts see Table 16) were charged to a vial and anhydrous acetonitrile (1000 μl, 20 vol.) was added. The vials were stirred at 20° C. or 40° C.for 96 hours.

[4] = Water content / hygroscopicity of polymorphs; type: physicochemical
[5] = Mechanical grinding of Form A, XRPD analysis; type: physicochemical; conditions: ground for 24 hours
Description: Form A (50.4 mg) was ground for 24 hours. The product was recovered and analysed by XRPD to determine if any phase changes had occurred.

[6] = General assessment of polymorph solubility and stability to water/humidity; type: physicochemical

| Structure (SMILES) | Limit solubilities after 48 h at 20° C.; measured by Q 1H NMR: Free acid form equivalent [1] | Limit solubilities after 48 h at 20° C.; measured by Q 1H NMR: 4-aminoindacene (level of hydrolytic precursor measured in solution) [1] | further results |
| --- | --- | --- | --- |
| CCN1CCC(S(=O)(=O)NC(=O)Nc2c3c(cc4c2CCC4)CCC3)CC1 [Form 3A, 1-ethyl-N-((1,2,3,5,6,7-hexahydro-s-indacen-4-yl)carbamoyl)piperidine-4-sulfonamide] | 38.0 mg/mL | 0.0 mg/mL |  |
| CCN1CCC(S(=O)(=O)NC(=O)Nc2c3c(cc4c2CCC4)CCC3)CC1 [Form 3B, 1-ethyl-N-((1,2,3,5,6,7-hexahydro-s-indacen-4-yl)carbamoyl)piperidine-4-sulfonamide] | 6.3 mg/mL | 0.0 mg/mL |  |
| CCN1CCC(S(=O)(=O)NC(=O)Nc2c3c(cc4c2CCC4)CCC3)CC1 [Form 3C, 1-ethyl-N-((1,2,3,5,6,7-hexahydro-s-indacen-4-yl)carbamoyl)piperidine-4-sulfonamide] | 4.5 mg/mL | 2.6 mg/mL |  |
| CCN1CCC(S(=O)(=O)NC(=O)Nc2c3c(cc4c2CCC4)CCC3)CC1 [Form 3D, 1-ethyl-N-((1,2,3,5,6,7-hexahydro-s-indacen-4-yl)carbamoyl)piperidine-4-sulfonamide] |  |  | solubility at 48 h ([2]; purified water, 20 °C, water, thermodynamic from solid, Limit solubilities after 48 h at 20° C., measured by Q 1H NMR: Free acid form equivalent, 50 mg in purified water 1000 μl (20 vol.), 20° C., 48 h): 3900 µg/mL; Observation at 18 hours ([2]; stirred in purified water (20 vol.) at 20° C., 18 hours): suspension |
| CCN1CCC(S(=O)(=O)NC(=O)Nc2c3c(cc4c2CCC4)CCC3)CC1 [Form 3E, 1-ethyl-N-((1,2,3,5,6,7-hexahydro-s-indacen-4-yl)carbamoyl)piperidine-4-sulfonamide] | 3.3 mg/mL | 0.8 mg/mL |  |
| CCN1CCC(S(=O)(=O)NC(=O)Nc2c3c(cc4c2CCC4)CCC3)CC1 [Form 3F, 1-ethyl-N-((1,2,3,5,6,7-hexahydro-s-indacen-4-yl)carbamoyl)piperidine-4-sulfonamide] | 2.1 mg/mL | 0.8 mg/mL |  |
| CCN1CCC(S(=O)(=O)NC(=O)Nc2c3c(cc4c2CCC4)CCC3)CC1 [Form 3G, 1-ethyl-N-((1,2,3,5,6,7-hexahydro-s-indacen-4-yl)carbamoyl)piperidine-4-sulfonamide] | 1.5 mg/mL | 0.5 mg/mL |  |
| CCN1CCC(S(=O)(=O)NC(=O)Nc2c3c(cc4c2CCC4)CCC3)CC1 [Form 3H, 1-ethyl-N-((1,2,3,5,6,7-hexahydro-s-indacen-4-yl)carbamoyl)piperidine-4-sulfonamide] | 0.6 mg/mL | 0.0 mg/mL |  |
| CCN1CCC(S(=O)(=O)NC(=O)Nc2c3c(cc4c2CCC4)CCC3)CC1 [Form 3I, 1-ethyl-N-((1,2,3,5,6,7-hexahydro-s-indacen-4-yl)carbamoyl)piperidine-4-sulfonamide] | 0.3 mg/mL | 0.0 mg/mL |  |
| CCN1CCC(S(=O)(=O)NC(=O)Nc2c3c(cc4c2CCC4)CCC3)CC1 [Form 3J, 1-ethyl-N-((1,2,3,5,6,7-hexahydro-s-indacen-4-yl)carbamoyl)piperidine-4-sulfonamide] | 0.0 mg/mL | 0.1 mg/mL |  |
| CCN1CCC(S(=O)(=O)NC(=O)Nc2c3c(cc4c2CCC4)CCC3)CC1.[K] [Form A, 1-Ethyl-N-((1,2,3,5,6,7-hexahydro-s-indacen-4-yl)carbamoyl)piperidine-4-sulfonamide Monopotassium Form A] |  |  | Thermodynamic stability of polymorphic form [3]: more thermodynamically stable polymorphic form; also recorded: thermodynamically stable; Hygroscopicity [4]: hygroscopic; Non-assimilated water observed ([4]; depends on preparation and storage conditions): up to 3%; Phase change after grinding (XRPD) [5]: no significant change of polymorphic form; also recorded: stable to prolonged grinding conditions; Solubility (qualitative) [6]: good solubility |
| CCN1CCC(S(=O)(=O)NC(=O)Nc2c3c(cc4c2CCC4)CCC3)CC1.[K] [Form D, 1-Ethyl-N-((1,2,3,5,6,7-hexahydro-s-indacen-4-yl)carbamoyl)piperidine-4-sulfonamide Monopotassium Form D] |  |  | Stability in the presence of water ([6]; water as solvent or co-solvent or humidity (such as >30% RH at 25° C.)): stable in the presence of water |
